Data reported in patent US11046673B1, “Tetrazolinone compounds and its use” (SUMITOMO CHEMICAL COMPANY, LIMITED, priority 2016, dated 2021).

Test system: wheat rust fungi (Puccinia recondita)
Experiment: Test Example 13 / Comparative Test Example 1: wheat rust, foliar spray
Format: in vivo
Details: wheat (cv Shirogane), 12.5 ppm foliar spray, inoculated after 5 days
Protocol: A plastic pot was filled with soil and thereto wheat (cv; Shirogane) seeds were sown and the plants were grown in a greenhouse for 9 days. Any of the present compounds 1, 2, 3, 5, 6, 7, 8, 9, 10, 12, 13, 14, 15, 18, 19, 20, 21, 26, 27 and 28 each of which was made to a formulation according to the similar method to that of Formulation Example 6, was adjusted with water so as to be 12.5 ppm, and the adjusted solutions were sprayed to foliar parts so as to adhere adequately on the leaves of the above-mentioned wheat. After spraying the adjusted solutions, the plants were air-dried and were then cultivated at 20° C. under lighting for 5 days. The spores of wheat rust fungi (Puccinia recondita) were sprinkling-inoculated. After the inoculation, the plants were placed under a dark and humid condition at 23° C. for 1 day and were then cultivated at 20° C. under lighting for 8 days, and a lesion area was observed.
A plastic pot was filled with soils and thereto was seeded wheat (cv; Shirogane) and the plants were grown in a greenhouse for 9 days. 1-(2-{[2-methyl-4-(1-methyl-1H-pyrazol-3-yl)phenoxy]methyl}-3-methylphenyl)-4-m ethyl-4,5-dihydrotetrazole-5-one which was made to a formulation according to the similar method to that of Formulation Example 6 was adjusted with water so as to be 12.5 ppm. […]

Cc1cc(-c2ccn(C)n2)ccc1OCc1c(C)cccc1-n1nnn(C)c1=O [1-(2-{[2-methyl-4-(1-methyl-1H-pyrazol-3-yl)phenoxy]methyl}-3-methylphenyl)-4-m ethyl-4,5-dihydrotetrazole-5-one] was tested. Which “lesion area compared to the lesion area in untreated plants” value did it give?
The value was ≥ 70%.
